Test results: patent US20170143701A1, “CARBOHYDRATE METABOLISM-AMELIORATING AGENT” (SUNTORY HOLDINGS LIMITED, priority 2014, published 2017)

System: NCI-H716 cells
Assay: In vitro GLP-1 secretion-accelerating action: amount of active GLP-1 secreted (ELISA)
Format: cell-based
Settings: 1 hour; for Significant difference (p < 0.05) vs control group, amount of active GLP-1 secreted: 10 mM, Student's t-test; for Amount of active GLP-1 secreted (relative value to control group as 100), average value: cyclic dipeptide 10 mM with 10 μM Sitagliptin phosphate, group with no cyclic dipeptide = 100
Method: Among the cyclic dipeptides, 92 highly water-soluble cyclic dipeptides were used in the following experiment. In each well of a Poly-L-Lysine 96-well plate, NCI-H716 cells suspended in 100 μL of a DMEM (with 10% FBS, 2 mM glutamine, and 1% antibiotics added in advance) were seeded at 0.5×10^5 cells/well, and cultured in a CO2 incubator (manufactured by ESPEC CORP.) for 48 hours. After washing with PBS(+), 100 μL of a PBS(+) solution with each cyclic dipeptide at a final concentration of 10 mM and 10 μM of Sitagliptin phosphate added therein was added to the cells. After 1 hour, the resultant solution was recovered, and the amount of active GLP-1 in the solution was measured by using the ELISA kit. In the analysis, the amount of active GLP-1 for a group with no cyclic dipeptide added was defined as 100, and relative values thereto were used.

| Structure (SMILES) | Significant difference (p < 0.05) vs control group, amount of active GLP-1 secreted (Table 3, Experiment 3) | Amount of active GLP-1 secreted (relative value to control group as 100), average value (Table 3, Experiment 3) | Significant difference (p < 0.05) vs control group, amount of active GLP-1 secreted (Table 4, Experiment 4) | Amount of active GLP-1 secreted (relative value to control group as 100), average value (Table 4, Experiment 4) |
| --- | --- | --- | --- | --- |
| CC(O)C1NC(=O)C(CCCCN)NC1=O (centres unmarked) [compound 143, Cyclo(Thr-Lys)] | No | 105 | – | – |
| C[C@@H]1NC(=O)[C@H](CC(=O)O)NC1=O [compound 153, Cyclo(Asp-Ala)] | No | 94 | – | – |
| O=C1CNC(=O)[C@H](CO)N1 [compound 154, Cyclo(Ser-Gly)] | No | 116 | – | – |
| CC(O)C1NC(=O)C(CCC(=O)O)NC1=O (centres unmarked) [compound 157, Cyclo(Thr-Glu)] | No | 139 | – | – |
| NC(N)=NCCC[C@@H]1NC(=O)[C@H](CO)NC1=O [compound 159, cyclo-arginyl-serine] | Yes | 135 | – | – |
| C[C@H](O)[C@@H]1NC(=O)[C@H](CC(=O)O)NC1=O [compound 165, Cyclo(Asp-Thr)] | No | 140 | – | – |
| C[C@H](O)[C@@H]1NC(=O)[C@H](CC(N)=O)NC1=O [compound 166, Cyclo(Asn-Thr)] | No | 149 | – | – |
| C[C@H](O)[C@@H]1NC(=O)[C@H](CCC(N)=O)NC1=O [compound 167, Cyclo(Gln-Thr)] | No | 156 | – | – |
| C[C@H](O)[C@@H]1NC(=O)[C@H](CCCN=C(N)N)NC1=O [compound 168, Cyclo(Arg-Thr)] | No | 142 | – | – |
| NC(=O)C[C@@H]1NC(=O)[C@H](CC(=O)O)NC1=O [compound 170, Cyclo(Asn-Asp)] | No | 125 | – | – |
| NC(=O)CCC1NC(=O)C(CC(=O)O)NC1=O (centres unmarked) [compound 171, Cyclo(Gln-Asp)] | No | 120 | – | – |
| CSCCC1NC(=O)C(CC(=O)O)NC1=O (centres unmarked) [compound 172, Cyclo(Met-Asp)] | – | – | No | 141 |
| CSCCC1NC(=O)C(CC(N)=O)NC1=O (centres unmarked) [compound 175, cyclo-asparaginyl-methionine] | – | – | Yes | 218 |
| NC(=O)CCC1NC(=O)C(CCC(N)=O)NC1=O (centres unmarked) [compound 176, Cyclo(Gln-Gln)] | – | – | No | 111 |
| CSCC[C@@H]1NC(=O)[C@H](CCC(N)=O)NC1=O [compound 186, cyclo-glutaminyl-methionine] | – | – | Yes | 191 |
| NC(=O)CCC1NC(=O)C2CCCN2C1=O (centres unmarked) [compound 188, Cyclo(Gln-Pro)] | – | – | No | 132 |
